Drawing on PubChem BioAssay AID330 (DTP/NCI, 2004), this text covers T/C for 28 compounds.

Each structure is given as a SMILES string. Values joined by “and” are separate entries in the source; they are usually repeats but may differ in a detail not shown here. Equal values may be shown once. Inconclusive results and toxic doses are left out.

In the test the test system is P388 leukemia ip, CD2F1 mice, survival T/C. Briefly: NCI In Vivo Anticancer Drug Screen. Data for tumor model P388 Leukemia (intraperitoneal) in CD2F1 (CDF1) mice. To be noted: endpoint: median survival time, higher = longer survival. In outline:
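Mice carrying the transplanted tumor received test compound or vehicle. Survival was recorded in each group, and the value is the treated-group measurement divided by that of the vehicle-treated control group.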

[1] abbreviates: dose: 50.0 mg/kg/injection, schedule: Q01DX005 (ip), vehicle: saline with Tween-80.
Setting [2] is: dose: 100.0 mg/kg/injection, schedule: Q01DX005 (ip), vehicle: saline with Tween-80.
The mark [3] stands for this setting: dose: 200.0 mg/kg/injection, schedule: Q01DX005 (ip), vehicle: saline with Tween-80.
The mark [4] stands for this setting: dose: 50.0 mg/kg/injection, schedule: Q01DX005 (ip), vehicle: saline.
Where [5] appears, read: dose: 100.0 mg/kg/injection, schedule: Q01DX005 (ip), vehicle: saline.
Where [6] appears, read: dose: 200.0 mg/kg/injection, schedule: Q01DX005 (ip), vehicle: saline.
Setting [7] is: dose: 25.0 mg/kg/injection, schedule: Q01DX009 (ip), vehicle: Klucel (hydroxypropylcellulose) (HPC).
Setting [8] is: dose: 100.0 mg/kg/injection, schedule: Q01DX009 (ip), vehicle: saline with Tween-80.
The mark [9] stands for this setting: dose: 200.0 mg/kg/injection, schedule: Q01DX009 (ip), vehicle: saline with Tween-80.
[10] abbreviates: dose: 50.0 mg/kg/injection, schedule: Q01DX009 (ip), vehicle: saline with Tween-80.
The mark [11] stands for this setting: dose: 50.0 mg/kg/injection, schedule: Q01DX005 (ip), vehicle: Klucel (hydroxypropylcellulose) (HPC).
Setting [12] is: dose: 100.0 mg/kg/injection, schedule: Q01DX005 (ip), vehicle: Klucel (hydroxypropylcellulose) (HPC).
[13] abbreviates: dose: 200.0 mg/kg/injection, schedule: Q01DX005 (ip), vehicle: Klucel (hydroxypropylcellulose) (HPC).

As to `C=COC(=O)C(Cc1cccs1)NC(=O)OCc1ccccc1` (centres undefined), the T/C by setting is: under setting [1], 101 % of control; under setting [2], 96 % of control; under setting [3], 95 % of control.

In the case of `CC(C)CC(N)C(=O)NCCC(=O)O` (centres undefined), the T/C was 101 % of control under setting [4], 101 % of control under setting [5] and 100 % of control under setting [6].

Take `CCN(CC)[P+](c1cc(OC)ccc1OC)(N(CC)CC)N(CC)CC`: the T/C is 121 % of control (dose: 1.56 mg/kg/injection, schedule: Q01DX009 (ip), vehicle: Klucel (hydroxypropylcellulose) (HPC)); 106 % of control (dose: 3.13 mg/kg/injection, schedule: Q01DX009 (ip), vehicle: Klucel (hydroxypropylcellulose) (HPC)); 91 % of control under setting [7].

Regarding `O=C1C(N2CC2)=C(N2CC2)C(=O)c2ncncc21`, the T/C was 105 % of control (dose: 2.5 mg/kg/injection, schedule: Q01DX005 (ip), vehicle: saline); 104 % of control and 113 % of control (dose: 5.0 mg/kg/injection, schedule: Q01DX005 (ip), vehicle: saline); 107 % of control (dose: 10.0 mg/kg/injection, schedule: Q01DX005 (ip), vehicle: saline).

As for `CCOC1=N[C@H]2CCCC[C@H]2N1`, the T/C (dose: 15.0 mg/kg/injection, schedule: Q01DX005 (ip), vehicle: saline) was 98 % of control; the T/C (dose: 30.0 mg/kg/injection, schedule: Q01DX005 (ip), vehicle: saline) was 96 % of control; the T/C (dose: 60.0 mg/kg/injection, schedule: Q01DX005 (ip), vehicle: saline) was 102 % of control and 98 % of control.

Take `O=C(CNC(=O)Nc1cccc([N+](=O)[O-])c1)NNC(=O)Nc1ccc(Cl)c([N+](=O)[O-])c1`: the T/C is 91 % of control (dose: 60.0 mg/kg/injection, schedule: Q01DX005 (ip), vehicle: saline with Tween-80); 91 % of control (dose: 120.0 mg/kg/injection, schedule: Q01DX005 (ip), vehicle: saline with Tween-80); 106 % of control (dose: 240.0 mg/kg/injection, schedule: Q01DX005 (ip), vehicle: saline with Tween-80).

In the case of `COc1cc(-c2nc(=S)[nH][nH]2)cc(OC)c1OC`, the T/C (dose: 100.0 mg/kg/injection, schedule: Q01DX001 (ip), vehicle: saline with Tween-80) is 89 % of control; the T/C (dose: 200.0 mg/kg/injection, schedule: Q01DX001 (ip), vehicle: saline with Tween-80) was 89 % of control; the T/C (dose: 400.0 mg/kg/injection, schedule: Q01DX001 (ip), vehicle: saline with Tween-80) is 96 % of control.

On to `Oc1c(Cl)cc(Cl)cc1/C=N/c1nc(-c2ccc(Cl)cc2)cs1`, for which the T/C runs as follows: under setting [8], 88 % of control; under setting [9], 104 % of control.

In the case of `CC(=O)Nc1ccc2nc3n(c(=O)c2c1)CCCC3`, the T/C (dose: 100.0 mg/kg/injection, schedule: Q01DX001 (ip), vehicle: Klucel (hydroxypropylcellulose) (HPC)) was 101 % of control; the T/C (dose: 200.0 mg/kg/injection, schedule: Q01DX001 (ip), vehicle: Klucel (hydroxypropylcellulose) (HPC)) was 101 % of control; the T/C (dose: 400.0 mg/kg/injection, schedule: Q01DX001 (ip), vehicle: Klucel (hydroxypropylcellulose) (HPC)) is 100 % of control.

Take `O=C(c1ccc(Cl)cc1)c1nnc(Cl)s1`: the T/C is 110 % of control under setting [10], 118 % of control under setting [8] and 101 % of control under setting [9].

`Clc1nc(Cl)nc(N2CCCc3ccccc32)n1`: the T/C reads like this: under setting [10], 89 % of control; under setting [8], 96 % of control; under setting [9], 93 % of control.

As to `CC(/C=C/c1ccco1)=N\NC(=S)Nc1ccc(Br)cc1`, the T/C by setting is: (dose: 100.0 mg/kg/injection, schedule: Q04DX002 (ip), vehicle: Klucel (hydroxypropylcellulose) (HPC)) 97 % of control; (dose: 200.0 mg/kg/injection, schedule: Q04DX002 (ip), vehicle: Klucel (hydroxypropylcellulose) (HPC)) 97 % of control; (dose: 400.0 mg/kg/injection, schedule: Q04DX002 (ip), vehicle: Klucel (hydroxypropylcellulose) (HPC)) 92 % of control.

With `c1cc[c]([Sn]2([c]3ccccc3)[O]CCNCC[O]2)cc1`, the T/C reads like this: (dose: 25.0 mg/kg/injection, schedule: Q01DX005 (ip), vehicle: saline) 150 % of control; under setting [4], 153 % of control; under setting [5], 155 % of control and 160 % of control.

In the case of `OCCN1CCC(C2CCN(CCO)CC2)CC1`, the T/C runs as follows: under setting [4], 96 % of control; under setting [5], 97 % of control; under setting [6], 98 % of control.

On to `COc1cc(NC(=O)C2=C(C)NC(C)=C(C(=O)Nc3cc(OC)c(Cl)cc3OC)C2c2cccc([N+](=O)[O-])c2)c(OC)cc1Cl`, for which the T/C (dose: 60.0 mg/kg/injection, schedule: Q01DX005 (ip), vehicle: Klucel (hydroxypropylcellulose) (HPC)) is 89 % of control and the T/C (dose: 120.0 mg/kg/injection, schedule: Q01DX005 (ip), vehicle: Klucel (hydroxypropylcellulose) (HPC)) is 89 % of control.

Regarding `O=C1C=CC(=Nc2cc(Cl)c(O)c(Cl)c2)C=C1`, the T/C under setting [1] is 96 % of control, the T/C under setting [2] was 92 % of control and the T/C under setting [3] is 88 % of control.

On to `COc1c2c(c(C)c3ccc4ccccc4c13)CCN=C2`, for which the T/C is, setting by setting: under setting [11], 103 % of control; under setting [12], 102 % of control; under setting [13], 113 % of control.

In the case of `COc1ccc(CCNc2ccc(NCCc3ccc(OC)c(OC)c3)c3c2C(=O)c2ccccc2C3=O)cc1OC`, the T/C reads like this: (dose: 25.0 mg/kg/injection, schedule: Q01DX009 (ip), vehicle: other) 88 % of control; (dose: 50.0 mg/kg/injection, schedule: Q01DX009 (ip), vehicle: other) 88 % of control; (dose: 200.0 mg/kg/injection, schedule: Q01DX009 (ip), vehicle: other) 101 % of control; (dose: 400.0 mg/kg/injection, schedule: Q01DX009 (ip), vehicle: other) 91 % of control.

For the compound `CCN(CC)CCOc1ccc(C(O)(Cc2ccc(OC)cc2)c2ccccc2)cc1` (centres undefined), the T/C under setting [1] is 101 % of control, the T/C under setting [2] was 92 % of control and the T/C under setting [3] was 92 % of control.

As for `O=C(CC(=NCC(O)CN=C(CC(=O)c1ccccc1)c1ccccc1)c1ccccc1)c1ccccc1` (centres undefined), the T/C is, setting by setting: (dose: 100.0 mg/kg/injection, schedule: Q04DX002 (ip), vehicle: saline with Tween-80) 98 % of control; (dose: 200.0 mg/kg/injection, schedule: Q04DX002 (ip), vehicle: saline with Tween-80) 98 % of control; (dose: 400.0 mg/kg/injection, schedule: Q04DX002 (ip), vehicle: saline with Tween-80) 91 % of control.

`CN1CCCSC1=S`: the T/C is, setting by setting: (dose: 6.25 mg/kg/injection, schedule: Q01DX009 (ip), vehicle: Klucel (hydroxypropylcellulose) (HPC)) 111 % of control; (dose: 12.5 mg/kg/injection, schedule: Q01DX009 (ip), vehicle: Klucel (hydroxypropylcellulose) (HPC)) 97 % of control; under setting [7], 106 % of control.

Turning to `C#CCOc1ccccc1C(=O)NNc1ccc([N+](=O)[O-])cc1[N+](=O)[O-]`, the T/C was 97 % of control under setting [10] and 87 % of control under setting [8].

Consider `COc1ccc2nccc(CO)c2c1`, for which the T/C by setting is: under setting [11], 102 % of control; under setting [12], 102 % of control; under setting [13], 96 % of control.

In the case of `Cc1cc(N(CCCl)CCCl)ccc1N=Nc1cccc2ccccc12`, the T/C was 105 % of control under setting [10], 115 % of control under setting [8] and 123 % of control under setting [9].

For `CCCCCCCCCCCCCCCc1cccc(OC)c1C(=O)OC`, the T/C is, setting by setting: (dose: 20.0 mg/kg/injection, schedule: Q01DX009 (ip), vehicle: saline) 109 % of control; (dose: 40.0 mg/kg/injection, schedule: Q01DX009 (ip), vehicle: saline) 106 % of control; (dose: 80.0 mg/kg/injection, schedule: Q01DX009 (ip), vehicle: saline) 104 % of control.

In the case of `CCN(CC)CCCNc1cc(OC)cc2nc3cc(Cl)ccc3nc12`, the T/C is, setting by setting: under setting [4], 100 % of control; under setting [5], 106 % of control.

Consider `CNCCNc1ncc([N+](=O)[O-])s1`, for which the T/C by setting is: (dose: 25.0 mg/kg/injection, schedule: Q01DX001 (ip), vehicle: saline) 115 % of control and 118 % of control; (dose: 50.0 mg/kg/injection, schedule: Q01DX001 (ip), vehicle: saline) 122 % of control and 124 % of control.

`CC1(c2ccco2)NC(=O)N(Cl)C1=O` (centres undefined): the T/C (dose: 100.0 mg/kg/injection, schedule: Q04DX003 (ip), vehicle: saline) was 104 % of control and the T/C (dose: 200.0 mg/kg/injection, schedule: Q04DX003 (ip), vehicle: saline) was 90 % of control.
